For one assay, the system named is human MPs. Briefly: [Ca2+]i measurement in MPs (fura-2). The class given is cell-based. On the procedure:
[Ca^2+1]i measurements. PMNs or MPs (2×10^7 cells in each case) were incubated with fura-2 AM (1 μM) and pluronic detergent (0.02%) for 12 min at room temperature, diluted sixfold, and incubated for a further 30 min at room temperature to allow for complete hydrolysis of the dye. Cells were then resuspended in HEPES-buffered saline at 5×10^5 cells/ml (32). For experiments using MPs, sulfinpyrazone (0.5 mM) was included at all steps to minimize both dye sequestration into intracellular organelles and dye efflux (33). Fluorescence of fura-2 was monitored at 37° C. in a thermostatically-controlled cuvette installed in a Perkin Elmer Model 650-40 fluorescense spectrophotometer. Calibration of [Ca^2+]i was performed as described (34).
For determination of [Ca^2+] in PMSs and MPs, cells (2×10^7 in each case) were incubated with fura-2 AM (1 um) and pluronci detergent (0.02%) at room temperature, diluted 6-fold, and incubated for a further 30 min at room temperature to allow for complete hydrolysis of the dye. Cells were then resuspended in HEPES-buffered saline at 5×10^5 cells/ml (32). For MPs, sulfinpyrazone (0.5 mM) was included at all steps to minimize both dye sequestration into intracellular organelles and dye efflux (33). Fluorescence of fura-2 was monitored at 37° C. in a thermostatically controlled cuvette installed in a Perkin Elmer model 650-40 fluorescence spectrophotometer. […]

The next assay concerns human PMNs. Briefly: PMN migration in microchemotaxis chambers. The class given is cell-based. Details: key to PMN MIGRATION: (+) indicates the peptide induced PMN migration; (−) indicates the peptide did not induce PMN migration above levels seen in controls which contained no chemotactic stimulus. On the procedure: Assessment of mononuclear phagocyte (mononuclears) and polymorphonuclear leukocyte (PMN) migration. Human peripheral blood monocytes were isolated from the blood of normal healthy volunteers (30). Blood was centrifuged on Hisopaque 1077 (Sigma, St. Louis, Mo.), the mononuclear fraction was obtained, washed twice in Earle's balanced salt solution, resuspended in RPMI 1640 containing human serum (10%; Gemini, Calabasas, Calif.), plated on tissue culture dishes and incubated at 37° C. for 1-2 hrs. Nonadherent cells were removed by washing the plate twice with balanced salt solution, and adherent cells were harvested by incubation with calcium-magnesium free buffer containing EDTA (2 mM) for 15 min at 37° C., followed by extensive washing. PMNs were prepared by centrifugation over Hisopaque 1119 as per the manufacturer's protocol (Sigma). Chemotaxis assays were performed in microchemotaxis chamber (NeuroProbe, Bethesda, Md.) containing Nucleopore polycarbonate membranes (5 μm; Nucleopore, Pleasonton, Calif.). Mononuclears or PMNs were suspended in RPMI 1640 containing fetal bovine serum (1%) and 10^4 cells were added per well to the upper chamber. The chemotactic stimulus was added to the indicated chamber, and assays were performed in quadruplicate over a 3 hr or 45 min incubation period at 37° C., with mononuclear cells or PMNs, respectively, after which non-migrating cells were removed, membranes were fixed in methanol, migrating cells were visualized with Wright's stain. Cells in nine high-power fields were counted, and the mean and standard error of the mean (SEM) were determined.
Cell migration was studied by adding MPs or PMNs (10^4 cells/well) resuspended in RPMI 1640 with fetal calf serum (1%; Gemini) to the upper wells of a microchemotaxis chamber (Neuro Probe, Bethesda, Md.) containing Nucleopore polycarbonate membranes (5 μm, Nucleopore, Pleasanton Calif.), as described (7,29-30). The chemotactic stimulus was placed in the upper or lower chamber, as indicated, and cells were allowed to migrate for 3 hrs (for MPs) or 45 min (for PMNs) at 37° C. Following removal of non-migrating cells, membranes were fixed in methanol and migrating cells were visualized with Wright's stain. Assays were performed in quadruplicate, and cells were counted in nine high-power fields in each case (mean±SEM is shown in the figures).
Migration of PMNs and MPs—Migration was studied using cells (10^4 and 10^3 cells/well form PMNs and MPs, respectively) resuspended in RPMI 1640 with fetal calf serum (1%) added to the upper wells of a microchemotaxis chamber (Neuro Probe, Bethesda, Md.) containing Nucleopore polycarbonate membranes (5 um, Nucleopor, Pleasanton, Calif.), as described (13, 22, 35). The stimulus was placed in the upper or lower chamber, as indicated, and the cells were allowed to migrate for 3 h (for MPs) or 45 min (for PMNs) at 37° C. Following removal of nonmigrating cells, membranes were fixed in methanol, and migrating cells were visualized with Wright's stain. Assays were performed in quadruplicate, and cells were counted in […] high-power fields in each case (mean±S.E. is shown in the figures).

A value given as a limit tells only on which side of the number the result lay.

In the case of “ASRLDLRIGRIVTAKY [residues #6-20 from EMAP II, Cys to Arg substitution at position #15, and a C-terminal Tyr]”, in the assay with human MPs, the “Rise in [Ca2+]i in MPs” value was “results in elevation of [Ca^2+]i”. In addition, the “Dose above which PMN migration reached an apparent maximum” value in the assay with human PMNs (data not shown) is above 1 nM. Also, the EC50 with human PMNs (four experiments, PMNs from three individuals, read-out: Peptide concentration for half-maximal PMN migration) fell in the range of 0.15 to 0.3 nM. Also, the “Induction of PMN migration (chemotaxis)” value in the assay with human PMNs (microchemotaxis chamber, 45 min at 37° C.) was “led to induction of migration”. Further, the “PMN migration at 100 pM peptide relative to fMLP at 1 μM” value with human PMNs (peptide 100 pM) is recorded as “roughly comparable”. For the same sequence, in the assay on human PMNs (peptide added to the lower well), the “Concentration range over which effect on PMN migration was dose-dependent” value fell in the range of 10 to 10000 pM. The “PMN MIGRATION” value with human PMNs (peptides 100 pM in each case) is given as “+”.
